Assay results reported in patent US20240124491A1, “METHODS AND COMPOUNDS FOR TREATING FRIEDREICH'S ATAXIA” (Design Therapeutics, Inc., priority 2021, published 2024).

test system: human FXN; experiment: EC50 assay: FXN mRNA expression by qRT-PCR in GM15850 cells after 48 hrs compound treatment; assay type: cell-based; conditions: Homo sapiens, 48 hrs incubation, hFXN expression normalized to hGAPDH (qRT-PCR), read-out: EC50 WT (nM, 48 hr)
Procedure: Cell culture: Cells were cultured in RPMI1640 medium+15% FBS. Cells were maintained at a density between 2e5/mL and 1e6/mL. Cells were centrifuged, resuspended in fresh medium, counted and plated at 150,000 cells per well in 100 uL in a non-coated, flat bottom tissue culture plate.
Compound treatment: 10 mM stock solution of FA GeneTAC was diluted 1:10 in DMSO followed by a 1:100 dilution in growth medium. Working solution was then further diluted to 10× desired final concentration of 150 nM. Compound was then diluted at a 1:3 ratio into growth medium containing 0.01% DMSO. 5-point, 3-fold dose response curve was generated. 11 μL of 1OX compound was added to wells containing 100 μL cell suspension of GM15850. 11 μL growth medium containing 0.01% DMSO was added to all wells not treated with FA GeneTAC. Cells were allowed to incubate for 48 hrs prior to cell lysis using guanidine isothiocyanate solution.
RNA isolation: Total RNA was isolated and purified in 384-well column filter plates using chaotropic salt.
qRT-PCR: qRT-PCR reactions were assembled using AgPath-ID reagents (Thermo Fisher) using 6 uL mastermix and 4 μL RNA. qRT-PCR TaqMan primer probe sets against human FXN (Assay ID Hs01075496_m1) and human GAPDH (Assay ID Hs00266705_g1) were used to measure the intended targets. qRT-PCR was run on the ThermoFisher QuantStudio 6 PRO instrument using the manufacturer's recommended cycling conditions.
Data analysis: qPCR data was analyzed using Thermo Fisher Design and Analysis software. Data was exported to Excel and hFXN expression was normalized to hGAPDH expression
A<100 nM; B is 100 nM to 500 nM; C>500 nM.

**Q.** Which EC50 does the source give for `Cc1sc2c(c1C)C(c1ccc(Cl)cc1)=N[C@@H](CC(=O)NC1CCN(CCOCCOCCOCCN3CCN(CCN4CCN(CCOCCNC(=O)CCNC(=O)c5nc(NC(=O)CCNC(=O)c6cc(NC(=O)c7nc(NC(=O)CCNC(=O)c8cc(NC(=O)c9nccn9C)cn8C)cn7C)cn6C)cn5C)CC4)CC3)CC1)c1nnc(C)n1-2` [Compound 29] here?
**A.** The EC50 was greater than 500 nM.

**Q.** With `Cc1cc(F)cc(C)c1Oc1ccc(C(C)(C)O)cc1-c1cn(C)c(=O)c2[nH]c(C(=O)N3CCN(CC4CCN(CCOCCOCCOCCOCCOCCOCCNC(=O)CCNC(=O)c5nc(NC(=O)CCNC(=O)c6cc(NC(=O)c7nc(NC(=O)CCNC(=O)c8cc(NC(=O)c9nccn9C)cn8C)cn7C)cn6C)cn5C)CC4)CC3)cc12` [Compound 167] as the compound, how does the EC50 read?
**A.** Its EC50 is greater than 500 nM.

**Q.** How did the EC50 turn out when `Cc1cc(F)cc(C)c1Oc1ccc(C(C)(C)O)cc1-c1cn(C)c(=O)c2[nH]c(C(=O)N3CCC(C#CC#CC4CCN(CCOCCOCCOCCOCCNC(=O)CCNC(=O)c5nc(NC(=O)CCNC(=O)c6cc(NC(=O)c7nc(NC(=O)CCNC(=O)c8cc(NC(=O)c9nccn9C)cn8C)cn7C)cn6C)cn5C)CC4)CC3)cc12` [Compound 135] was run?
**A.** Its EC50 is 100 to 500 nM.

**Q.** How did the EC50 turn out when `Cc1cc(F)cc(C)c1Oc1ccc(C(C)(C)O)cc1-c1cn(C)c(=O)c2[nH]c(C(=O)Nc3ccc(OCCOCCOCCOCCOCCOCCOCCOCCn4cc(CNC(=O)c5nc(NC(=O)CCNC(=O)c6cc(NC(=O)c7nc(NC(=O)CCNC(=O)c8cc(NC(=O)c9nccn9C)cn8C)cn7C)cn6C)cn5C)nn4)cc3)cc12` [Compound 217, N-({1-[23-(4-{4-[2-(4-fluoro-2,6-dimethylphenoxy)-5-(2-hydroxypropan-2-yl)phenyl]-6-methyl-7-oxo-1H-pyrrolo[2,3-c]pyridine-2-amido}phenoxy)-3,6,9,12,15,18,21-heptaoxatricosan-1-yl]-1,2,3-triazol-4-yl}methyl)-1-methyl-4-[3-({1-methyl-4-[1-methyl-4-(3-{[1-methyl-4-(1-methylimidazole-2-amido)pyrrol-2-yl]formamido}propanamido)imidazole-2-amido]pyrrol-2-yl}formamido)propanamido]imidazole-2-carboxamide] was run?
**A.** Its EC50 is less than 100 nM.

**Q.** How did the EC50 turn out when `Cc1sc2c(c1C)C(c1ccc(Cl)cc1)=N[C@@H](CC(=O)NC1CCN(CCOCCOCCOCCOCCOCCN3CCN(CCCCCNC(=O)CCNC(=O)c4nc(NC(=O)CCNC(=O)c5cc(NC(=O)c6nc(NC(=O)CCNC(=O)c7cc(NC(=O)c8nccn8C)cn7C)cn6C)cn5C)cn4C)CC3)CC1)c1nnc(C)n1-2` [Compound 109] was run?
**A.** The EC50 was 100 to 500 nM.

**Q.** How did the EC50 turn out when `Cc1sc2c(c1C)C(c1ccc(Cl)cc1)=N[C@@H](CC(=O)Nc1ccc(C#CC#CCN(CCN3CCN(C)CC3)C(=O)COCCOCCOCCOCCOCCNC(=O)CCNC(=O)c3nc(NC(=O)CCNC(=O)c4cc(NC(=O)c5nc(NC(=O)CCNC(=O)c6cc(NC(=O)c7nccn7C)cn6C)cn5C)cn4C)cn3C)cc1)c1nnc(C)n1-2` [Compound 42] was run?
**A.** The EC50 was less than 100 nM.

**Q.** With `Cc1sc2c(c1C)C(c1ccc(Cl)cc1)=N[C@@H](CC(=O)Nc1ccc(N3CCN(CCOCCOCCOCCOCCOCCOCCNC(=O)CCNC(=O)c4nc(NC(=O)CCNC(=O)c5cc(NC(=O)c6nc(NC(=O)CCNC(=O)c7cc(NC(=O)c8nccn8C)cn7C)cn6C)cn5C)cn4C)CC3)cc1)c1nnc(C)n1-2` [Compound 3] as the compound, how does the EC50 read?
**A.** Its EC50 is less than 100 nM.

**Q.** Which EC50 does the source give for `Cc1sc2c(c1C)C(c1ccc(Cl)cc1)=N[C@@H](CC(=O)N1CCC(C#CC#CC3CCN(CCOCCOCCOCCOCCOCCOCCOCCNC(=O)CCNC(=O)c4nc(NC(=O)CCNC(=O)c5cc(NC(=O)c6nc(NC(=O)CCNC(=O)c7cc(NC(=O)c8nccn8C)cn7C)cn6C)cn5C)cn4C)CC3)CC1)c1nnc(C)n1-2` [Compound 142] here?
**A.** The EC50 was less than 100 nM.

**Q.** For `Cc1sc2c(c1C)C(c1ccc(Cl)cc1)=N[C@@H](CC(=O)N1CCN(CC3CCN(CCOCCOCCOCCN4CCC(CN5CCN(C(=O)CCNC(=O)c6nc(NC(=O)CCNC(=O)c7cc(NC(=O)c8nc(NC(=O)CCNC(=O)c9cc(NC(=O)c%10nccn%10C)cn9C)cn8C)cn7C)cn6C)CC5)CC4)CC3)CC1)c1nnc(C)n1-2` [Compound 20], which EC50 is on record?
**A.** The EC50 was greater than 500 nM.

**Q.** With `CC(=O)Nc1c(O[C@@H](C)c2ccccc2)cc(C=O)c(N2CCC(C#CC#CC3CCN(CCOCCOCCOCCOCCNC(=O)CCNC(=O)c4nc(NC(=O)CCNC(=O)c5cc(NC(=O)c6nc(NC(=O)CCNC(=O)c7cc(NC(=O)c8nccn8C)cn7C)cn6C)cn5C)cn4C)CC3)CC2)c1F` [Compound 136] as the compound, how does the EC50 read?
**A.** The EC50 was greater than 500 nM.

**Q.** For `COc1ccc2c(c1)C(c1ccc(Cl)cc1)=N[C@@H](CC(=O)N1CCN(CC3CCN(CCOCCOCCOCCOCCOCCOCCOCCNC(=O)CCNC(=O)c4nc(NC(=O)CCNC(=O)c5cc(NC(=O)c6nc(NC(=O)CCNC(=O)c7cc(NC(=O)c8nccn8C)cn7C)cn6C)cn5C)cn4C)CC3)CC1)c1nnc(C)n1-2` [Compound 46], which EC50 is on record?
**A.** The EC50 was greater than 500 nM.

**Q.** Which EC50 does the source give for `CC(=O)N1c2ccc(-c3ccc(C(=O)N4CCC(C#CC#CC5CCN(CCOCCOCCNC(=O)CCNC(=O)c6nc(NC(=O)CCNC(=O)c7cc(NC(=O)c8nc(NC(=O)CCNC(=O)c9cc(NC(=O)c%10nccn%10C)cn9C)cn8C)cn7C)cn6C)CC5)CC4)cc3)cc2C(Nc2ccc(Cl)cc2)C[C@@H]1C` (stereo partly drawn) [Compound 144] here?
**A.** Its EC50 is less than 100 nM.

**Q.** Which EC50 does the source give for `Cc1sc2c(c1C)C(c1ccc(Cl)cc1)=N[C@@H](CC(=O)NC1CCN(CCOCCOCCOCCC(=O)NC3(C(=O)NCCOCCOCCOCCOCCNC(=O)CCNC(=O)c4nc(NC(=O)CCNC(=O)c5cc(NC(=O)c6nc(NC(=O)CCNC(=O)c7cc(NC(=O)c8nccn8C)cn7C)cn6C)cn5C)cn4C)CCNCC3)CC1)c1nnc(C)n1-2` [Compound 71] here?
**A.** The EC50 was 100 to 500 nM.

**Q.** `COc1nnc2ccc(N3CCC(c4ccc(OCCN5CCN(CCOCCOCCOCCOCCOCCOCCOCCOCCNC(=O)CCNC(=O)c6nc(NC(=O)CCNC(=O)c7cc(NC(=O)c8nc(NC(=O)CCNC(=O)c9cc(NC(=O)c%10nccn%10C)cn9C)cn8C)cn7C)cn6C)C(=O)[C@H]5C)cc4)CC3)nn12` [Compound 116] was tested. Which EC50 did it give?
**A.** Its EC50 is greater than 500 nM.

**Q.** How did the EC50 turn out when `Cc1sc2c(c1C)C(c1ccc(Cl)cc1)=N[C@@H](CC(=O)N1CCN(C3CCN(CCOCCOCCOCCOCCOCCOCCNC(=O)CCNC(=O)c4nc(NC(=O)CCNC(=O)c5cc(NC(=O)c6nc(NC(=O)CCNC(=O)c7cc(NC(=O)c8nccn8C)cn7C)cn6C)cn5C)cn4C)CC3)CC1)c1nnc(C)n1-2` [Compound 53] was run?
**A.** The EC50 was 100 to 500 nM.

**Q.** How did the EC50 turn out when `Cc1sc2c(c1C)C(c1ccc(Cl)cc1)=N[C@@H](CC(=O)Nc1ccc(N3CCN(CCOCCOCCOCCOCCOCCNC(=O)CCNC(=O)c4nc(NC(=O)CCNC(=O)c5cc(NC(=O)c6nc(NC(=O)CCNC(=O)c7cc(NC(=O)c8nccn8C)cn7C)cn6C)cn5C)cn4C)CC3)cc1)c1nnc(C)n1-2` [Compound 4] was run?
**A.** Its EC50 is less than 100 nM.

**Q.** How did the EC50 turn out when `Cc1cc(F)cc(C)c1Oc1ccc(C(C)(C)O)cc1-c1cn(C)c(=O)c2[nH]c(C(=O)N3CCN(C4CCN(CCOCCOCCOCCOCCC(=O)NCCCN(CCCNC(=O)CCNC(=O)c5nc(NC(=O)CCNC(=O)c6cc(NC(=O)c7nc(NC(=O)CCNC(=O)c8cc(NC(=O)c9nccn9C)cn8C)cn7C)cn6C)cn5C)CC(F)(F)F)CC4)CC3)cc12` [Compound 169] was run?
**A.** The EC50 was 100 to 500 nM.

**Q.** How did the EC50 turn out when `COc1nnc2ccc(N3CCC(c4ccc(OCCN5[C@H](C)CN(C(=O)COCCOCCOCCOCCOCCOCCOCCOCCNC(=O)CCNC(=O)c6nc(NC(=O)CCNC(=O)c7cc(NC(=O)c8nc(NC(=O)CCNC(=O)c9cc(NC(=O)c%10nccn%10C)cn9C)cn8C)cn7C)cn6C)C[C@@H]5C)cc4)CC3)nn12` [Compound 115] was run?
**A.** Its EC50 is greater than 500 nM.

**Q.** Which EC50 does the source give for `Cc1sc2c(c1C)C(c1ccc(Cl)cc1)=N[C@@H](CC(=O)N1CCC(C#CC#CC3CCN(CCOCCOCCOCCNC(=O)CCNC(=O)c4nc(NC(=O)CCNC(=O)c5cc(NC(=O)c6nc(NC(=O)CCNC(=O)c7cc(NC(=O)c8nccn8C)cn7C)cn6C)cn5C)cn4C)CC3)CC1)c1nnc(C)n1-2` [Compound 139] here?
**A.** The EC50 was less than 100 nM.

**Q.** `Cc1sc2c(c1C)C(c1ccc(Cl)cc1)=N[C@@H](CC(=O)N1CCN(C3CCN(CCOCCOCCOCCOCCC(=O)NCCCN(CCCNC(=O)CCNC(=O)c4nc(NC(=O)CCNC(=O)c5cc(NC(=O)c6nc(NC(=O)CCNC(=O)c7cc(NC(=O)c8nccn8C)cn7C)cn6C)cn5C)cn4C)CC(F)(F)F)CC3)CC1)c1nnc(C)n1-2` [Compound 68] was tested. Which EC50 did it give?
**A.** The EC50 was less than 100 nM.

**Q.** With `Cc1cc(F)cc(C)c1Oc1ccc(C(C)(C)O)cc1-c1cn(C)c(=O)c2[nH]c(C(=O)Nc3ccc(OCCOCCOCCOCCOCCOCCOCCOCCNC(=O)CCNC(=O)c4nc(NC(=O)CCNC(=O)c5cc(NC(=O)c6nc(NC(=O)CCNC(=O)c7cc(NC(=O)c8nccn8C)cn7C)cn6C)cn5C)cn4C)cc3)cc12` [Compound 205, N-(5-{[2-({2-[(2-{[23-(4-{4-[2-(4-fluoro-2,6-dimethylphenoxy)-5-(2-hydroxypropan-2-yl)phenyl]-6-methyl-7-oxo-1H-pyrrolo[2,3-c]pyridine-2-amido}phenoxy)-3,6,9,12,15,18,21-heptaoxatricosan-1-yl]carbamoyl}ethyl)carbamoyl]-1-methylimidazol-4-yl}carbamoyl)ethyl]carbamoyl}-1-methylpyrrol-3-yl)-1-methyl-4-(3-{[1-methyl-4-(1-methylimidazole-2-amido)pyrrol-2-yl]formamido}propanamido)imidazole-2-carboxamide] as the compound, how does the EC50 read?
**A.** Its EC50 is less than 100 nM.
